Literature values in patent US7884090B2, “Compositions and methods for the treatment of arthritis” (priority 1999, dated 2011).

What was measured:
[1] = test system: Staph haemolyticus, Staph hominis, Acinetobacter Iwoffi and further listed species up to Yersinia enterocolitica; settings: in vitro
[2] = test system: pseudomonas aeruginosa, methicillin-resistant strains of Staph. aureus and Proteus

SMILES | Strains against which effective [1] | Strains against which active [2]
O=C(O)c1cn(C2CC2)c2cc(N3CCNCC3)c(F)cc2c1=O [cipro, ciprofloxacin] | 90% | –
CCN[C@@H]1C[C@H](N)[C@@H](O[C@H]2OC(CN)=CC[C@H]2N)[C@H](O)[C@H]1O[C@H]1OC[C@](C)(O)[C@H](NC)[C@H]1O [netilmicin] | – | 85%
